# How the values were obtained:
# Type in all cases: cell-based, Human
# PC-3 cells = assay: Morphological analysis of PC-3 cells; conditions: 10 μM and 1000 μM, 48 h
# Method: (§1) Cell Line and Culture Conditions • Human metastatic, androgen insensitive prostate cancer cells, PC-3, were obtained from ATCC (Manassas, Va., USA). Cells were grown in F-12K medium supplemented with 2 mM glutamine, 10% FBS, 100 U/mL penicillin, and 100 μg/mL streptomycin. PC-3 cells were maintained in a humidified atmosphere of 5% CO2 at 37° C. in T-75 flasks and were subcultured when confluent.
# These typical features of apoptosis were used to evaluate the mechanism of decreased cell proliferation by carvacrol in PC-3 cells.
# In order to identify the morphological changes in PC-3 cells after treatment with carvacrol, 2×10^6 cells/well were seeded in flat-bottom, 6-well microtiter plates, allowed to grow for 24 h, then treated with 10 μM and 1000 μM of carvacrol, and incubated further for 48 h at 37° C. After incubation, cells were washed twice with PBS, and microscopic photographs of morphological changes of the cells were captured using a fluorescent microscope, Axiovert 200M (Carl Zeiss MicroImaging Inc, NY, USA). 1.15% EtOH was used as a solvent control.
# LNCaP cells [1] = assay: Morphological analysis of LNCaP cells; conditions: 10 μM and 1000 μM, 48 hours, dose-dependent
# Method: (§2) Human metastatic prostate cancer cells, LNCaP, were obtained from ATCC (Manassas, Va., USA). Cells were grown in RPMI-1640 medium supplemented with 2mM glutamine, 10% FBS, 100 U/mL penicillin, and 100 μg/mL streptomycin. LNCaP cells were maintained in a humidified atmosphere of 5% CO2 at 37° C. in T-75 flasks and were subcultured when confluent. Experiments were conducted using cells with passage numbers ranging from 5-20.
# Prominent features of morphological changes occurring in a cell, such as cell shrinkage, rounding of cells, membrane blebbing, and formation of apoptotic bodies indicate induction of apoptosis or programmed cell death.
# In order to identify the morphological changes in LNCaP cells after treatment with carvacrol, 2×10^6 cells/well were seeded in flat-bottom, 6-well microtiter plates, allowed to grow for 24 hours, treated with 10 μM and 1000 μM of carvacrol, and incubated for a further 48 hours at 37° C. Post incubation, cells were washed twice with PBS, and microscopic photographs of morphological changes of the cells were captured using a fluorescent microscope, Axiovert 200M (Carl Zeiss MicroImaging Inc, NY, USA). 1.15% EtOH was used in solvent control.
# [2] = system: cytochrome c release in PC-3 cells; assay: Western blot analysis of cytochrome c release in PC-3 cells; conditions: 48 h
# Method: as §1
# Western blotting is a widely used analytical technique for detection of specific proteins separated from one another according to their size by gel electrophoresis. […] Once detected, the target protein will be visualized as a band on a blotting membrane, X-ray film, or an imaging system.
# Cytochrome c is a heme-containing component of the electron transport chain in the mitochondrial membrane. […] In order to further confirm that carvacrol induced apoptosis in these cells, the release of cytochrome c from mitochondria into cytosol was analyzed using Western blot analysis in carvacrol-treated cells. […]
# After maintaining constant agitation at 4° C. for 30 minutes, lysates were collected in microcentrifuge tubes and centrifuged at 12,000 rpm at 4° C. for 20 minutes. […] Protein concentration was determined using the Pierce® BCA protein assay kit. […] Western blot images are representative of at least 3 independent experiments, while quantification data represent mean±S.E.M. of n≧3 experiments.
# LNCaP cells [3] = assay: Phosphatidylserine externalization by fluorescence microscopy (PSVue 480) in LNCaP cells; conditions: 10 μM and 1000 μM, 48 hours, dose-dependent
# Method: as §2
# One of the earliest events to occur in apoptosis or programmed cell death is the externalization of phosphatidylserine (PS), a membrane phospholipid restricted to the inner leaflet of the lipid bilayer. Redistribution of PS from the inner leaflet to the outer leaflet occurs in cells undergoing apoptosis. The PSVue™ 480 reagent kit was used to perform the phosphatidylserine (PS) externalization assay. The principle behind this assay involves a strong binding of PSVue™ 480 (fluorescent probe) to the anionic PS residues exposed on the surface of the apoptotic cells by its Zn (II)-dipicolylamine (Zn-DPA) functionality, making it a useful apoptotic sensor.
# To detect PS externalization, LNCaP cells were seeded as 0.5×10^6 cells/well in flat-bottom, 6-well microtiter plates. After 24 hours of incubation at 37° C., cells were treated with 10 μM and 1000 μM of carvacrol for 48 hours. […]
smiles,measurement,setting,value
Cc1ccc(C(C)C)cc1O [Carvacrol],morphological changes (features of apoptosis),PC-3 cells,"exhibited typical features of apoptosis like rounding of cells, membrane blebbing, and cell shrinkage"
same,morphological changes (features of apoptosis),LNCaP cells [1],"typical features of apoptosis like rounding of cells, membrane blebbing, cell shrinkage and formation of apoptotic bodies were observed"
same,cytochrome c levels in cytosol (Western blot),"[2]; 10 μM, compared to solvent control",Increase in cytochrome c levels in cytosol was observed
same,cytochrome c levels (Western blot),"[2]; 2000 μM, compared to 10 μM carvacrol-treated cells",decrease in levels of cytochrome c
same,externalization of phosphatidylserine residues (PSVue 480 positive cells),LNCaP cells [3],showed externalization of phosphatidylserine residues
